# Reference: patent US20200255828A1, “METHODS AND COMPOSITIONS FOR ALTERING FUNCTION AND STRUCTURE OF CHROMATIN LOOPS AND/OR DOMAINS” (THE BROAD INSTITUTE, INC., priority 2017, published 2020)
# System: histone modifications
# Test: ChIP-Seq for histone modifications before and after auxin
# Type: cell-based, human
# Excerpt: Applicants first examined the effects of cohesin degradation on key epigenomic features associated with genome folding, using ChIP-Seq. Applicants examined the distribution of CTCF (associated with loop anchors) and the histone modifications H3K27me3, H3K36me3, H3K27Ac, H3K4me1, H3K4me3, H3K9me3, H4K16Ac, H4K20me3, H3K79me2, and H2.AZ (associated with compartment intervals). Cohesin loss had little effect on these features (FIG. 1C,D; FIG. 8C-E, see Methods).
# ChIP-Seq for H3K27Ac, H3K4me1, H3K4me3, H3K36me3, H3K27me3, H3K9me3, H4K16Ac, H4K20me3, H3K79me2, and H2.AZ was performed using a native ChIP-Seq protocol. Chromatin from untreated HCT-116 RAD21-mAC cells or cells treated for 6 hours with 500 uM IAA was digested with Mnase (Sigma) in digestion buffer (50 mM Tris-HCl, pH7.6, 1 mM CaCl2), 0.2% Triton X-100, butyrate 5 mM) for 5′ at 37° C. and dialyzed against RIPA buffer for 2 hrs at 4° C. Five microgram of respective antibody was incubated with 40 μl of Dynabeads Protein A (or G) for 40 min at room temperature. Antibody-bound beads were added to 500 μl of sonicated or Mnase-digested chromatin, incubated at 4° C. overnight, and washed twice with RIPA buffer, twice with RIPA buffer containing 0.3 M NaCl, twice with LiCl buffer (0.25 M LiCl, 0.5% Igepal-630, 0.5% sodium deoxycholate), once with TE (pH 8.0) plus 0.2% Triton X-100, and once with TE (pH 8.0). ChIP DNA was purified by phenol-chloroform extraction followed by ethanol precipitation. Libraries were prepped for Illumina sequencing and 50 bp single-end reads were sequenced on a HiSeq2000 or 2500 (Illumina). Applicants also performed ChIP-Seq for RAD21 and CTCF following the same protocol as above, except that cells were fixed with 1% formaldehyde for 10 minutes at 37° C. and fixation was quenched by the addition of glycine to a final concentration of 125 mM for 10 minutes. The fixed cells were sonicated using a Branson sonifier at amplitude 35%, 12 cycles of 20 seconds of sonication and 30 seconds of pause. Antibody was added to the sonicated chromatin as above and the samples were further processed as above.
# All ChIP-Seq data was aligned to hg19 with BWA […] (Li and Durbin, 2010), deduplicated using PicardTools, and analyzed with MACS 2.0 (Liu, 2014). All data was normalized against the corresponding input control using the ‘-c’ option of MACS 2.0. ChIP-Seq peaks were called using the ‘callpeak’ function of MACS 2.0 with default parameters. For H3K4me3 and H3K4me1, Applicants additionally used the ‘broad’ option of MACS 2.0 and merged close by peaks to identify broad peaks. […] Finally, in order to annotate broad-source domains, Applicants utilized RSEG (Song and Smith, 2011) using the following flags: ‘-b 25000’, ‘-i 20’, ‘-mode 2’.
# Applicants calculated average signal over 5 kb bins across the entire genome and correlated signal between ChIP-Seq experiments before and after auxin treatment for each of CTCF, H3K27me3, H3K9me3, H3K4me1, H3K4me3 and H3K27Ac.
# Additionally, Applicants examined overlaps of our ChIP-Seq peak annotations before and after auxin treatment for H3K4me3, H3K4me1 and H3K27Ac. […]
smiles,measurement,setting,value
"O=C(O)Cc1c[nH]c2ccccc12 [auxin, indole-3-acetic acid]",overlap of H3K4me1 ChIP-Seq peaks called before and after auxin treatment,,85%
same,overlap of H3K4me3 ChIP-Seq peaks called before and after auxin treatment,,90%
same,overlap of H3K27Ac ChIP-Seq peaks called before and after auxin treatment,,81%
same,"Spearman's r of ChIP-Seq signal before vs after auxin treatment, H2.AZ",5 kb bins genome-wide,0.96
same,"Spearman's r of ChIP-Seq signal before vs after auxin treatment, H3K4me1",5 kb bins genome-wide,0.94
same,"Spearman's r of ChIP-Seq signal before vs after auxin treatment, H3K4me3",5 kb bins genome-wide,0.70
same,"Spearman's r of ChIP-Seq signal before vs after auxin treatment, H3K9me3",5 kb bins genome-wide,0.95
same,"Spearman's r of ChIP-Seq signal before vs after auxin treatment, H3K27Ac",5 kb bins genome-wide,0.90
same,"Spearman's r of ChIP-Seq signal before vs after auxin treatment, H3K27me3",5 kb bins genome-wide,0.95
same,"Spearman's r of ChIP-Seq signal before vs after auxin treatment, H3K36me3",5 kb bins genome-wide,0.94
same,"Spearman's r of ChIP-Seq signal before vs after auxin treatment, H3K79me2",5 kb bins genome-wide,0.96
same,"Spearman's r of ChIP-Seq signal before vs after auxin treatment, H4K16Ac",5 kb bins genome-wide,0.95
same,"Spearman's r of ChIP-Seq signal before vs after auxin treatment, H4K20me3",5 kb bins genome-wide,0.89
